Where two headings read alike, the source gives them in different places.
Assays:
[1] = HepG2 72 h cytotoxicity (CellTiter-Glo); type: cell-based, human; details: human
Protocol: Two mammalian cell lines were used for counter-screening for general cytotoxicity of hit compounds: human embryonic kidney cells (HEK293T; ATCC CRL-3216) and human hepatocellular carcinoma cells (HepG2; ATCC HB-8065). […] Compounds were pre-spotted into tissue culture-treated white solid-bottomed 1536-well plates (Greiner) in a 1:3 dose-response dilution (top concentration 20 μM). HEK293T and HepG2 cells were diluted to 75×10^3 cells/mL and 150×10^3 cells/mL, respectively, and 5 μL/well were dispensed into assay plates with a MultiFlo FX Multi-Mode Dispenser (Biotek). […] At the completion of the assay, CellTiter-Glo (Promega) was prepared at 1:2 (reagent:water) of the manufacturer’s instructions, and 2 μL were dispensed into each well. After a 5 min incubation at room temperature, luminescence readings were measured with an EnVision Multilabel Plate Reader (Perkin Elmer). […] were uploaded into Genedata Screener (v13.0-Standard), and data normalized to DMSO- and puromycin-treated wells. A four-parameter non-linear regression curve fit was applied to dose-response data using Genedata to determine the half maximal cytotoxic concentration (CC50) of each compound.

C. parvum [2] = experiment: Washout assay: 3-h treatments over the asexual life cycle of C. parvum; details: 3-h treatment then washout; even at 3×EC99
Protocol: We examined short, three-hour compound treatments of in vitro cultures, followed by compound washout, that covered the complete asexual life cycle, believed to be 13–15 h post invasion [36]. […] The treatment interval lasted 3 h before washout with fresh medium; infected cells were allowed to grow until 48 h post infection before fixation. […] As CFZ is very lipophilic, we sought to determine whether intracellular accumulation was affecting the strong inhibition across each time point.
Infected cells were treated in six 3-h increments over the course of 15 h (the presumed in vitro asexual lifecycle of C. parvum). HCT-8 cells were seeded (25 μL/well) into clear-bottomed 384-well plates (Greiner) at a density of 6.0×10^5 cells/mL (15,000 cells/well) in assay medium, and allowed to grow 24 h at 37°C with 5% CO2 in a humidified tissue culture incubator, covered with a custom metal lid (The Genomics Institute of the Novartis Research Foundation) to reduce evaporation. After 24 h, and 2 h before infecting with C. parvum oocysts (time -2 hpi), the treatment time course was initiated. […] DMSO was used as a negative control. Cell medium was removed from designated wells and replaced with medium containing either compound or DMSO. […] Plates were then spun at 150×g for 3 min, and kept at 37°C with 5% CO2 in a humidified tissue culture incubator during drug treatment intervals. At the end of each 3 h time point, infected cells were carefully washed three times with fresh, pre-warmed assay medium, and the next set of wells for the subsequent time point were treated. The final time point extended to 18 h, to cover re-invasion of merozoites into new HCT-8 cells. After the final compound treatment was washed off, infected cells were allowed to grow until 48 h post infection.

[3] = Pharmacokinetic study in mice (plasma, feces, urine); details: 20 mg/kg oral; for fecal excretion (unchanged), first 24 h: mean ± SEM; for peak plasma concentration: mean ± SEM n=3
Cryptosporidium = test system: Cryptosporidium; set-up: method as in PMID 23878324; details: once per day for ten consecutive days at 100 mg/kg; cited from earlier work
C. parvum [4] = experiment: Mouse model of acute cryptosporidiosis, fecal oocyst shedding by flow cytometry; type: in vivo, C57BL/6 IFNγ-/- mice; details: for oocyst shedding, % of mock-dosed mice: 10 mg/kg oral on days 4, 5, 6 p.i., 10^4 oocysts, day 7 (within 24 h of end of treatment)
Protocol: Four week old female C57BL/6 IFNγ^-/- mice were purchased from the Jackson Laboratory and acclimated for four to ten days in specific pathogen-free conditions in the Health Sciences Biomedical Research Facility at the University of California, San Diego. Mice were provided water and chow (Teklad 2920X) ad libitum. […] Treatment regimens included 10 mg/kg, 100 mg/kg, and 0 mg/kg (vehicle only; n = 4 per group). Certain assays also involved gavage of characterized anticryptosporidial BKI-1294 (a kind gift from W. […] Oocysts were extracted via a modified discontinuous sucrose gradient technique. Briefly, […] solution was freshly prepared by dissolving 156.25 g sucrose and 2.5 mL phenol in 100 mL water. Fecal pellets were removed from storage then homogenized by vortexing and pipetting. […] Oocysts were floated from feces by centrifugation at 1,000×g for 20 min and collected with a pipet tip from the 1.064/1.103 specific gravity interface. Oocysts were rinsed once in cold PBS, pelleted by centrifugation at 15,000×g for 10 min, and resuspended in PBS. 50 μL aliquots were incubated for 30 min at room temperature with 0.25 μg fluorescein isothiocyanate-conjugated mouse anti-Cryptosporidium antibody (OW50-FITC, BioRad 2402-3007), then diluted to 200 μL with PBS. Samples were analyzed using a Guava EasyCyte flow cytometer and CytoSoft Data Acquisition and Analysis software (v5.3; Guava Technologies, Inc.), using a 100 s sampling interval, 0.59 μL/s flow rate, and logical gating of forward and side light scatter and OW50-FITC fluorescence signals. Each experimental run included positive and negative controls to calibrate region settings discriminating the oocyst-FITC population from background signals. Oocyst counts/mL sample values were exported to Excel (Microsoft Corp.) for normalization to counts/mg feces. Final graphing and statistical analyses of data were done using GraphPad Prism software (v6, GraphPad Software, Inc.). Two-way ANOVA with Dunnett's correction (Fig 4A) and unpaired multiple t-tests with False Discovery Rate approach (Fig 4B) were performed on % Vehicle data to determine significance between vehicle-treated and compound-treated mice.

[5] = set-up: method as in PMID 2656045; details: cited from earlier work
[6] = 7% Tween 80, 3% ethanol, 90% water

Structure (SMILES)	CC50 at 72 h [1]	inhibition of parasite growth at all time points other than 10–13 h post infection (C. parvum [2])	dosage excreted in the urine, first 48 h [3]	plasma concentration dropped to, within first 24 h post dosing [3]	fecal excretion (unchanged), first 24 h [3, 6]	peak plasma concentration [3, 6]	efficacy in mouse model of chronic cryptosporidiosis (Cryptosporidium)	oocyst shedding, % of mock-dosed mice (C. parvum [4])	CC50 at 72 h ([1]; HepG2 cells, 72 h, value (SD; n), read-out: HepG2 72H Cytotoxicity CC50 [µM] (SD; n))	time plasma concentrations remained stable after the initial maximal concentration [3]	fecal excretion (unchanged), first 24 h ([3]; MC-Tween)	peak plasma concentration ([3]; MC-Tween, within first 24 h)	fecal excretion (unchanged), first 24 h ([3]; corn oil)	peak plasma concentration ([3]; corn oil, within first 24 h)	mean fecal excretion, next 48 h ([3]; either formulation)	oocyst shedding, % of control group (C. parvum [4]; 10 mg/kg oral daily from day 4 p.i., within two days of treatment onset)	oocyst shedding (C. parvum [4]; once daily for three consecutive days or a single high dose)	oocyst shedding, % of mock-treated mice (C. parvum [4]; single 100 mg/kg oral dose on day 4, 1×10^6 oocysts, second day after treatment)	drug half-life [5]
CCOc1ccc2cc(-c3nn(CC4CCN(C)CC4)c4ncnc(N)c34)ccc2c1 [BKI-1294]	11.1 µM	< 60%	1.6%	6.7 ± 0.3 ng/mL	8.9% ± 0.5%	1282 ± 154 ng/mL	demonstrated efficacy	18.1% ± 2.2%											
CC(C)/N=c1\cc2n(-c3ccc(Cl)cc3)c3ccccc3nc-2cc1Nc1ccc(Cl)cc1 [Clofazimine]			< 0.15%					below 1%	> 20 µM	at least 20 hours	25.7% ± 13.3%	288 ± 2 ng/mL	14.8% ± 3.1%	445 ± 61 ng/mL	< 2%	2.5% ± 1.7%	reduction of oocyst shedding below the limit detectable by flow cytometry	1.5% ± 0.4%	~ 70 days

Source: article PMC5310922, “A high-throughput phenotypic screen identifies clofazimine as a potential treatment for cryptosporidiosis” (PLoS Neglected Tropical Diseases, 2017)
